From patent publication US20080292561A1, “Pyrazolo-Pyrimidine Derivatives as Anti-Inflammatory Agents” (Glaxo Group Limited, priority 2005, published 2008)

system: NFkB activity; assay: Glucocorticoid mediated transrepression of NFkB activity (A549 cells, ELAM promoter alkaline phosphatase reporter, TNFα); format: cell-based; settings: Homo sapiens, A549, 16 h, Human A549 lung epithelial cells, 3 ng/ml human recombinant TNFα, read-out: pIC50, transrepression of NFkB activity (converted)
Excerpt: Human A549 lung epithelial cells were engineered to contain a secreted placental alkaline phosphatase gene under the control of the distal region of the NFkB dependent ELAM promoter as previously described in Ray, K. P., Farrow, S., Daly, M., Talabot, F. and Searle, N. “Induction of the E-selectin promoter by interleukin 1 and tumour necrosis factor alpha, and inhibition by glucocorticoids” Biochemical Journal (1997) 328: 707-15.
Compounds were solvated and diluted in DMSO, and transferred directly into assay plates such that the final concentration of DMSO was 0.7%. Following the addition of cells (40K per well), plates were incubated for 1 hr prior to the addition of 3 ng/ml human recombinant TNFα. Following continued incubation for 16 hr, alkaline phosphatase activity was determined by measuring the change in optical density at 405 nm with time following the addition of 0.7 volumes of assay buffer (1 mg/ml p-nitrophenylphosphate dissolved in 1M diethanolamine, 0.28M NaCl, 0.5 mM MgCl2). Dose response curves were constructed from which EC50 values were estimated.

IC50, < 100 nM:
COc1ccc(F)cc1C(C)(C)CC(O)(CNc1nc(C)nc2c1cnn2-c1ccccc1F)C(F)(F)F (centres unmarked) [Example 14, 1,1,1-Trifluoro-4-[5-fluoro-2-(methyloxy)phenyl]-2-({[1-(2-fluorophenyl)-6-methyl-1H-pyrazolo[3,4-d]pyrimidin-4-yl]amino}methyl)-4-methyl-2-pentanol]
CCc1nc(NCC(O)(CC(C)(C)c2cc(F)ccc2OC)C(F)(F)F)c2cnn(-c3ccc(F)cc3)c2n1 (centres unmarked) [Example 24, 2-({[6-Ethyl-1-(4-fluorophenyl)-1H-pyrazolo[3,4-d]pyrimidin-4-yl]amino}methyl)-1,1,1-trifluoro-4-[5-fluoro-2-(methyloxy)phenyl]-4-methyl-2-pentanol]
CCc1nc(NCC(O)(CC(C)(C)c2cccc3c2OCC3)C(F)(F)F)c2cnn(-c3ccccc3F)c2n1 (centres unmarked) [Example 6, 4-(2,3-Dihydro-1-benzofuran-7-yl)-2-({[6-ethyl-1-(2-fluorophenyl)-1H-pyrazolo[3,4-d]pyrimidin-4-yl]amino}methyl)-1,1,1-trifluoro-4-methyl-2-pentanol]
COc1ccc(F)cc1C(C)(C)CC(O)(CNc1nc(C)nc2c1cnn2-c1cccnc1)C(F)(F)F (centres unmarked) [Example 17, 1,1,1-Trifluoro-4-[5-fluoro-2-(methyloxy)phenyl]-4-methyl-2-({[6-methyl-1-(3-pyridinyl)-1H-pyrazolo[3,4-d]pyrimidin-4-yl]amino}methyl)-2-pentanol]
Cc1nc(NCC(O)(CC(C)(C)c2cccc3c2OCC3)C(F)(F)F)c2cnn(-c3ccccc3F)c2n1 (centres unmarked) [Example 2, 4-(2,3-Dihydro-1-benzofuran-7-yl)-1,1,1-trifluoro-2-({[1-(2-fluorophenyl)-6-methyl-1H-pyrazolo[3,4-d]pyrimidin-4-yl]amino}methyl)-4-methyl-2-pentanol]
